Assay results published in publication PMC6861653 (Chembiochem : a European journal of chemical biology, 2019).
*1 amine or outer side, *2 acyl side, *3 side chain or, on linkers, in order; H or OH if unused. Where a SMILES comes first, the peptide text is derived from it. [ ]: non-standard residue; d: D form. X1 = O=C([C@H]1CCC[C@@H]1N[*:1])[*:2]

Experiments:
Assay type in all cases: cell-based
[1] = target: T1, GLP-1R (Homo sapiens, UniProt P43220); assay: Signaling bias by Black-Leff operational model
[2] = target: T1, GLP-1R; conditions: HEK293 GloSensor cells transiently expressing GLP-1R
[3] = target: GLP-1R-RLuc8 / GFP^2-β-arrestin-2(R393E, R395E) (Homo sapiens, UniProt P43220); assay: β-arrestin-2 recruitment to GLP-1R, BRET assay in HEK293FT cells
[4] = target: GLP-1R-RLuc8 / GFP^2-β-arrestin-1 (Homo sapiens, UniProt P43220); assay: β-arrestin-1 recruitment to GLP-1R, BRET assay in HEK293FT cells
Sequence of GLP-1R-RLuc8 / GFP^2-β-arrestin-1 (P43220 24-463): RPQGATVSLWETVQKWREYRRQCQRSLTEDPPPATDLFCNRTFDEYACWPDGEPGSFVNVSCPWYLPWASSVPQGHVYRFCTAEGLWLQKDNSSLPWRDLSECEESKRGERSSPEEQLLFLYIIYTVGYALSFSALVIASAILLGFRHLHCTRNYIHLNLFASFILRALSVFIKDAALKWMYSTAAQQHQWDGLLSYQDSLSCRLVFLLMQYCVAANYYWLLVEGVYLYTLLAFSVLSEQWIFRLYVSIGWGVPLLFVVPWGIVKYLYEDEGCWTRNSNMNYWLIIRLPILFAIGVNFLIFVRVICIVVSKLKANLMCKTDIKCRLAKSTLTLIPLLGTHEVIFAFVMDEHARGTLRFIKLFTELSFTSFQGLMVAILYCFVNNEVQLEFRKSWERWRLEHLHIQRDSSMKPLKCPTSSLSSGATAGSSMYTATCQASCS
Sequence of GLP-1R-RLuc8 / GFP^2-β-arrestin-1 (P49407 whole entry partner): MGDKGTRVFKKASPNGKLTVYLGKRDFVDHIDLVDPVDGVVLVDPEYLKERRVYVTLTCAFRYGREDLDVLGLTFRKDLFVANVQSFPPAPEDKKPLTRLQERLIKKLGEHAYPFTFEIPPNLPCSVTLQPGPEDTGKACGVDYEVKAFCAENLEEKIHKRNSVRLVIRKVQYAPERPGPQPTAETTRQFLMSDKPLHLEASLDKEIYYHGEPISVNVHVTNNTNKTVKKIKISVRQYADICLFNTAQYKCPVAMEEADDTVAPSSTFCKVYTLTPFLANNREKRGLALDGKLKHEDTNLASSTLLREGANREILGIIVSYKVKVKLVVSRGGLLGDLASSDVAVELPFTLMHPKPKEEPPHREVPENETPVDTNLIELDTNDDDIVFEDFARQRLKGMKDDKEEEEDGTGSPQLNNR

T1 sequence (P43220 24-463, species assumed): as the sequence (P43220 24-463) above
Sequence of GLP-1R-RLuc8 / GFP^2-β-arrestin-2(R393E, R395E) (P43220 24-463, stated change not applied): as the sequence (P43220 24-463) above

SMILES	Signal bias relative to GLP-1, in words [1]	GLP-1R activation by cAMP production, in words [2]	β-arrestin-2 recruitment to the GLP-1R, in words [3]	β-arrestin-1 recruitment to the GLP-1R, in words [4]
CC[C@H](C)[C@H](NC(=O)[C@H](Cc1ccccc1)NC(=O)[C@H](CCC(=O)O)NC(=O)[C@H]1CCC[C@@H]1NC(=O)[C@H](C)NC(=O)[C@H](C)NC(=O)[C@H](CCC(N)=O)NC(=O)[C@H]1CCC[C@@H]1NC(=O)[C@H](CCC(=O)O)NC(=O)[C@H](CC(C)C)NC(=O)[C@H](Cc1ccc(O)cc1)NC(=O)[C@H]1CCC[C@@H]1NC(=O)[C@H](CO)NC(=O)[C@@H](NC(=O)[C@H](CC(=O)O)NC(=O)[C@H](CO)NC(=O)[C@@H](NC(=O)[C@H](Cc1ccccc1)NC(=O)[C@@H](NC(=O)CNC(=O)[C@H](CCC(=O)O)NC(=O)[C@H](C)NC(=O)[C@@H](N)Cc1c[nH]cn1)[C@@H](C)O)[C@@H](C)O)C(C)C)C(=O)N[C@H]1CCC[C@@H]1C(=O)N[C@@H](Cc1c[nH]c2ccccc12)C(=O)N[C@@H](CC(C)C)C(=O)N[C@H](C(=O)N[C@H]1CCC[C@@H]1C(=O)NCC(=O)N[C@@H](CCCNC(=N)N)C(N)=O)C(C)C [1b] (H-HAEGTFTSDVS[X1]YLE[X1]QAA[X1]EFI[X1]WLV[X1]GR-NH2; N-terminus assumed)	biased toward β-arrestin-2 recruitment vs. cAMP production			
CC[C@H](C)[C@H](NC(=O)[C@H](Cc1ccccc1)NC(=O)C[C@H](CCC(=O)O)NC(=O)[C@H](CCCCN)NC(=O)[C@H](C)NC(=O)[C@H](C)NC(=O)C[C@H](CCC(N)=O)NC(=O)CNC(=O)[C@H](CCC(=O)O)NC(=O)[C@H](CC(C)C)NC(=O)C[C@H](Cc1ccc(O)cc1)NC(=O)[C@H](CO)NC(=O)[C@H](CO)NC(=O)[C@@H](NC(=O)[C@H](CC(=O)O)NC(=O)[C@H](CO)NC(=O)[C@@H](NC(=O)[C@H](Cc1ccccc1)NC(=O)[C@@H](NC(=O)CNC(=O)[C@H](CCC(=O)O)NC(=O)[C@H](C)NC(=O)[C@@H](N)Cc1c[nH]cn1)[C@@H](C)O)[C@@H](C)O)C(C)C)C(=O)N[C@@H](C)C(=O)N[C@H](CC(=O)N[C@@H](CC(C)C)C(=O)N[C@H](C(=O)N[C@@H](CCCCN)C(=O)NCCC(=O)N[C@@H](CCCNC(=N)N)C(N)=O)C(C)C)Cc1c[nH]c2ccccc12 [2a]	modestly biased toward cAMP production relative to β-arrestin-1 recruitment			
CC[C@H](C)[C@H](NC(=O)[C@H](Cc1ccccc1)NC(=O)[C@H]1CCC[C@@H]1NC(=O)[C@H](CCCCN)NC(=O)[C@H](C)NC(=O)[C@H](C)NC(=O)[C@H]1CCC[C@@H]1NC(=O)CNC(=O)[C@H](CCC(=O)O)NC(=O)[C@H](CC(C)C)NC(=O)[C@H]1CCC[C@@H]1NC(=O)[C@H](CO)NC(=O)[C@H](CO)NC(=O)[C@@H](NC(=O)[C@H](CC(=O)O)NC(=O)[C@H](CO)NC(=O)[C@@H](NC(=O)[C@H](Cc1ccccc1)NC(=O)[C@@H](NC(=O)CNC(=O)[C@H](CCC(=O)O)NC(=O)[C@H](C)NC(=O)[C@@H](N)Cc1c[nH]cn1)[C@@H](C)O)[C@@H](C)O)C(C)C)C(=O)N[C@@H](C)C(=O)N[C@H]1CCC[C@@H]1C(=O)N[C@@H](CC(C)C)C(=O)N[C@H](C(=O)N[C@@H](CCCCN)C(=O)N[C@H]1CCC[C@@H]1C(=O)N[C@@H](CCCNC(=N)N)C(N)=O)C(C)C [2b] (H-HAEGTFTSDVSS[X1]LEG[X1]AAK[X1]FIA[X1]LVK[X1]R-NH2; N-terminus assumed)	smaller bias toward β-arrestin-2 vs. cAMP production			
CC[C@H](C)[C@H](NC(=O)[C@H]1CCC[C@@H]1NC(=O)[C@H](CCC(=O)O)NC(=O)[C@H](CCCCN)NC(=O)[C@H](C)NC(=O)[C@H]1CCC[C@@H]1NC(=O)[C@H](CCC(N)=O)NC(=O)CNC(=O)[C@H](CCC(=O)O)NC(=O)[C@H]1CCC[C@@H]1NC(=O)[C@H](Cc1ccc(O)cc1)NC(=O)[C@H](CO)NC(=O)[C@H](CO)NC(=O)[C@@H](NC(=O)[C@H](CC(=O)O)NC(=O)[C@H](CO)NC(=O)[C@@H](NC(=O)[C@H](Cc1ccccc1)NC(=O)[C@@H](NC(=O)CNC(=O)[C@H](CCC(=O)O)NC(=O)[C@H](C)NC(=O)[C@@H](N)Cc1c[nH]cn1)[C@@H](C)O)[C@@H](C)O)C(C)C)C(=O)N[C@@H](C)C(=O)N[C@@H](Cc1c[nH]c2ccccc12)C(=O)N[C@H]1CCC[C@@H]1C(=O)N[C@H](C(=O)N[C@@H](CCCCN)C(=O)NCC(=O)N[C@H]1CCC[C@@H]1C(=O)NCC(N)=O)C(C)C [3b] (H-HAEGTFTSDVSSY[X1]EGQ[X1]AKE[X1]IAW[X1]VKG[X1]G-NH2; N-terminus assumed)		no activation of the GLP-1R could be detected	inability to induce recruitment of either β-arrestin	inability to induce recruitment of either β-arrestin
CC(C)C[C@H](NC(=O)[C@H](Cc1ccc(O)cc1)NC(=O)[C@H](CO)NC(=O)[C@H]1CCC[C@@H]1NC(=O)[C@@H](NC(=O)[C@H](CC(=O)O)NC(=O)[C@H](CO)NC(=O)[C@@H](NC(=O)[C@H](Cc1ccccc1)NC(=O)[C@@H](NC(=O)CNC(=O)[C@H](CCC(=O)O)NC(=O)[C@H](C)NC(=O)[C@@H](N)Cc1c[nH]cn1)[C@@H](C)O)[C@@H](C)O)C(C)C)C(=O)N[C@H]1CCC[C@@H]1C(=O)NCC(=O)N[C@@H](CCC(N)=O)C(=O)N[C@@H](C)C(=O)N[C@H]1CCC[C@@H]1C(=O)N[C@@H](CCCCN)C(=O)N[C@@H](CCC(=O)O)C(=O)N[C@@H](Cc1ccccc1)C(=O)N[C@H]1CCC[C@@H]1C(=O)N[C@@H](C)C(=O)N[C@@H](Cc1c[nH]c2ccccc12)C(=O)N[C@@H](CC(C)C)C(=O)N[C@H]1CCC[C@@H]1C(=O)N[C@@H](CCCCN)C(=O)NCC(=O)N[C@@H](CCCNC(=N)N)C(N)=O [4b] (H-HAEGTFTSDV[X1]SYL[X1]GQA[X1]KEF[X1]AWL[X1]KGR-NH2; N-terminus assumed)	balanced signaling behavior			
